Results published in the supplement of paper PMC13380429.

Experiments:
Conditions in all cases: 72 h
Calu-3 [1] = assay: relative viability EC50 (midpoint between 100% and the lowest measured viability); higher = less toxic
Caco-2 [2] = assay: as above
Vero E6 [3] = assay: as above
HepG2 [4] = assay: as above
U2OS [5] = assay: as above
Calu-3 [6] = assay: cell viability relative to DMSO; higher = less toxic
Caco-2 [7] = assay: as above
Vero E6 [8] = assay: as above
HepG2 [9] = assay: as above
U2OS [10] = assay: as above
Calu-3 [11] = assay: drug sensitivity score (DSS) for viability; higher = more toxic; extreme values may be limits of the assay
Caco-2 [12] = assay: as above
Vero E6 [13] = assay: as above
HepG2 [14] = assay: as above
U2OS [15] = assay: as above

SMILES	relative viability EC50 (Calu-3 [1]) [µM]	relative viability EC50 (Caco-2 [2]) [µM]	relative viability EC50 (Vero E6 [3]) [µM]	relative viability EC50 (HepG2 [4]) [µM]	relative viability EC50 (U2OS [5]) [µM]	cell viability (Calu-3 [6]; 1 nM) [%]	cell viability (Calu-3 [6]; 10 nM) [%]	cell viability (Calu-3 [6]; 100 nM) [%]	cell viability (Calu-3 [6]; 1000 nM) [%]	cell viability (Calu-3 [6]; 10000 nM) [%]	cell viability (Caco-2 [7]; 1 nM) [%]	cell viability (Caco-2 [7]; 10 nM) [%]	cell viability (Caco-2 [7]; 100 nM) [%]	cell viability (Caco-2 [7]; 1000 nM) [%]	cell viability (Caco-2 [7]; 10000 nM) [%]	cell viability (Vero E6 [8]; 1 nM) [%]	cell viability (Vero E6 [8]; 10 nM) [%]	cell viability (Vero E6 [8]; 100 nM) [%]	cell viability (Vero E6 [8]; 1000 nM) [%]	cell viability (Vero E6 [8]; 10000 nM) [%]	cell viability (HepG2 [9]; 1 nM) [%]	cell viability (HepG2 [9]; 10 nM) [%]	cell viability (HepG2 [9]; 100 nM) [%]	cell viability (HepG2 [9]; 1000 nM) [%]	cell viability (HepG2 [9]; 10000 nM) [%]	cell viability (U2OS [10]; 1 nM) [%]	cell viability (U2OS [10]; 10 nM) [%]	cell viability (U2OS [10]; 100 nM) [%]	cell viability (U2OS [10]; 1000 nM) [%]	cell viability (U2OS [10]; 10000 nM) [%]	drug sensitivity score (Calu-3 [11])	drug sensitivity score (Caco-2 [12])	drug sensitivity score (Vero E6 [13])	drug sensitivity score (HepG2 [14])	drug sensitivity score (U2OS [15])
CN(C)CCC=C1c2ccccc2C=Cc2ccccc21 [cyclobenzaprine]	> 10	> 10	> 10	> 10	> 10	98.8	99.3	94.8	99	101	102	108	101	98.8	114	100	99.6	92.2	107	101	111	97.9	104	113	103	102	98.4	103	101	104	0	0	0	0	0
Nc1nc(=O)n([C@H]2C[C@H](O)[C@@H](CO)O2)cc1Cl [cytochlor]	> 10	> 10	> 10	> 10	> 10	91.6	98.1	102	95.7	86.3	90	97.6	77.4	101	84.6	100	98.5	98.8	98.3	98.7	114	105	113	93.5	76.5	97.7	100	94.4	100	92.5	0.4	0.5	0	1.7	0
O=C(O)Cc1ccc(CCNS(=O)(=O)c2ccc(Cl)cc2)cc1 [daltroban]	> 10	> 10	> 10	> 10	> 10	101	95.3	102	116	105	104	104	94.2	94.1	94.7	109	98.4	109	107	89.5	95	90.9	99.8	104	95.7	102	95.3	99.2	96.1	99.9	0	0	0	0	0
